Reference: US9206130B2, “Quinoline derivatives as AXL kinase inhibitors” (Max-Planck-Gesellschaft zur Förderung der Wissenschaften …, priority 2008, dated 2015)

Assays:
[1] = target: T1, wild type AXL (wtAXL) receptor tyrosine kinase (Homo sapiens, UniProt P30530); test: NIH-3T3-AXL cellular tyrosine kinase assay (inhibition of AXL phosphorylation); assay type: cell-based; conditions: AXL phosphorylation in NIH-3T3-AXL (clone 22) cells, serum-depleted, 2 h with compound, immunoprecipitation / anti-phosphotyrosine blot
T1 construct: WtAXL cDNA was cloned into vector pLXSN(ESK) and transfected into Phoenix E packaging cells; expressed in transfected cells; host or cells: NIH3T3 N7 mouse fibroblasts, retrovirally infected (clone 22)
T1 sequence (P30530 26-894): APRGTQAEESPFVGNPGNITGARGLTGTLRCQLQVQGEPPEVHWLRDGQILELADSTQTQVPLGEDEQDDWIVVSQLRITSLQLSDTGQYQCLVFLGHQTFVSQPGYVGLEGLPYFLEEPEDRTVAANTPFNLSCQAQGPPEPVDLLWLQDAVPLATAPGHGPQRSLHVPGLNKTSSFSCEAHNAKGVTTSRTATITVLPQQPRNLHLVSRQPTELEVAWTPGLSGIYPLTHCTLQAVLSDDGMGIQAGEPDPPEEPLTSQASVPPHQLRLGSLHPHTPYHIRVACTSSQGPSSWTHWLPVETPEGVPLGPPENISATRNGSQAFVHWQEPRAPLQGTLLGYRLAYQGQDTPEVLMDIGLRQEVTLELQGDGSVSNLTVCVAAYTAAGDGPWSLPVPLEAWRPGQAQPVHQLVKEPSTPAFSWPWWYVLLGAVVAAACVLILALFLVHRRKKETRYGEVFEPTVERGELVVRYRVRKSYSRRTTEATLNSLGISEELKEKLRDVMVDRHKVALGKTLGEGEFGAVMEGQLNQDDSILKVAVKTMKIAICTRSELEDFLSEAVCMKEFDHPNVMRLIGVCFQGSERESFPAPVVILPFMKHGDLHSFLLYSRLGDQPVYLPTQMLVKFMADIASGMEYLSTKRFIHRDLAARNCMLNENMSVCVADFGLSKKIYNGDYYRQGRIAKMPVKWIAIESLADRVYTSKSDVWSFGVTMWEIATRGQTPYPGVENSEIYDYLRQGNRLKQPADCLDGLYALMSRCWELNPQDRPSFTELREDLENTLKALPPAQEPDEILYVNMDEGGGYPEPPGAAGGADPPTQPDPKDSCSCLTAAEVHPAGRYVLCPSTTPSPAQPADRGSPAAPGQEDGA
Method in brief: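 Compound inhibition of AXL autophosphorylation was read by 4G10 immunoblot after anti-AXL immunoprecipitation from lysates. Cells: NIH3T3 lines stably carrying retroviral wild-type human AXL, treated 2 h with compound dilution series.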

## COc1cc2c(Oc3ccc(NS(=O)(=O)c4c(F)cccc4F)cc3F)ccnc2cc1OCCCN1CCCC(C)C1 (stereo not shown) [Example D32, 2,6-Difluoro-N-(3-fluoro-4-{6-methoxy-7-[3-(3-methyl-piperidin-1-yl)-propoxy]-quinolin-4-yloxy}-phenyl)-benzenesulfonamide]
other
  melting point: 117 to 119 °C
[1]
  IC50: 42 nM

## COc1cc2c(Oc3ccc(NS(=O)(=O)c4ccccc4OC(F)(F)F)cc3F)ccnc2cc1OCCCN1CCC(C)CC1 [Example D33, N-(3-Fluoro-4-{6-methoxy-7-[3-(4-methyl-piperidin-1-yl)-propoxy]-quinolin-4-yloxy}-phenyl)-2-trifluoromethoxy-benzenesulfonamide]
other
  melting point: 206 to 208 °C
[1]
  IC50: 68 nM
